We go through 2 molecules from US9974761B2, “Medications for deposition on biological surfaces” (The Procter & Gamble Company, priority 2014, dated 2018).

Assay [1] can be described thus: Sensation reported by panelists. Format: in vivo. The note with it: perceived sensation, in words.
In assay [2] the target is T1, human TRPM8 (UniProt Q8R4D5).
T1 construct: Receptor Activity TRPM8; Receptor Activity TRPM8; other: test compound at 0.001%; relative to WS5 control (30 microMolar); HEK 293 cells; other: test compound at 0.004%; other: test compound at 5.2E−5%; relative to WS5 control
The assay is described as follows: TRPM8 Protocol-FLIPR Assay (intracellular Ca2+). It is filed as cell-based. The note with it: for TRPM8 Time Course Activity 50 sec: fluorescence at 50 sec; for TRPM8 Time Course Activity 50 sec % of WS5: vs 30 uM WS-5.

Assay [3] has as its target T2, human TRPM8.
T2 construct: Receptor Activity TRPM8; Receptor Activity TRPM8; other: test compound at 0.001%; relative to WS5 control (30 microMolar); HEK 293 cells; other: test compound at 0.004%; other: test compound at 5.2E−5%; relative to WS5 control
The assay is described as follows: TRPM8 Protocol-FLIPR Assay (intracellular Ca2+). The note with it: for TRPM8 Time Course Activity 5 min % of WS5 / TRPM8 Time Course Activity 10 min % of WS5: dose 12.2 nM, vs 30 uM WS-5. It is filed as cell-based.

What is called EC50 is the concentration needed to bring the measured effect to its halfway point.

In the case of `CC(C)[C@@H]1CC[C@@H](C)C[C@H]1C(=O)NCC(NC(=O)[C@@H](C)N)c1ccccc1` (single isomer, unassigned) [Compound 28 fraction 1], in assay [1], the “sensation (cooling, warming, burning)” value was “intense cooling”. Moreover, the “TRPM8 Time Course Activity 50 sec” value was determined as 884.0 at human TRPM8 [2] (dose 6.1 nM); 3018.0 on human TRPM8 [2] (dose 12.2 nM); 1936.0 on human TRPM8 [2] (dose 24.4 nM); 2916.0 on human TRPM8 [2] (dose 48.8 nM); 3963.0 at human TRPM8 [2] (dose 97.6 nM); 5418.0 on human TRPM8 [2] (dose 195 nM). Moreover, the “TRPM8 Time Course Activity 50 sec” value was found to be 7592.0 at human TRPM8 [2] (dose 390 nM); 9786.0 at human TRPM8 [2] (dose 781 nM); 11114.0 on human TRPM8 [2] (dose 1.563 uM); 11637.0 at human TRPM8 [2] (dose 3.125 uM); 12229.0 on human TRPM8 [2] (dose 6.25 uM); 12430.0 on human TRPM8 [2] (dose 12.5 uM). In addition, the “TRPM8 Time Course Activity 50 sec” value is 13046.0 on human TRPM8 [2] (dose 25 uM), 12419.0 on human TRPM8 [2] (dose 50 uM) and 12646.0 at human TRPM8 [2] (dose 100 uM). Further, the “TRPM8 Time Course Activity 50 sec % of WS5” value at human TRPM8 [2] (dose 390 nM) is 75.5%; at human TRPM8 [2] (dose 781 nM), 97.3%; on human TRPM8 [2] (dose 1.563 uM), 110.5%; on human TRPM8 [2] (dose 3.125 uM), 115.7%; at human TRPM8 [2] (dose 6.25 uM), 121.6%; on human TRPM8 [2] (dose 12.5 uM) it was 123.6%. Moreover, the “TRPM8 Time Course Activity 50 sec % of WS5” value on human TRPM8 [2] (dose 25 uM) is 129.7%; on human TRPM8 [2] (dose 50 uM), 123.5%; on human TRPM8 [2] (dose 100 uM), 125.7%. The molecule further yielded an EC50 at human TRPM8 [3] (3 min) of 1.48 nM. Further, the “TRPM8 Time Course Activity 5 min % of WS5” value in the assay on human TRPM8 [3] (5 min) is 103.8%. In addition, in the assay on human TRPM8 [3] (10 min), the “TRPM8 Time Course Activity 10 min % of WS5” value was determined as 115.5%.

Take `CC(C)[C@@H]1CC[C@@H](C)C[C@H]1C(=O)NCC(NC(=O)[C@@H](C)N)c1ccccc1` (single isomer, unassigned) [Compound 28 fraction 2]: the “sensation (cooling, warming, burning)” value in assay [1] is recorded as “did not provide a cooling response”. The EC50 on human TRPM8 [3] (3 min) amounted to 55.5 nM. Moreover, at human TRPM8 [3] (5 min), the midpoint of the response, the EC50, lay at 45.7 nM and the “TRPM8 Time Course Activity 5 min % of WS5” value came to 65.7%. Further, at human TRPM8 [3] (10 min), it took 37.4 nM to reach a half-maximal effect (EC50) and the “TRPM8 Time Course Activity 10 min % of WS5” value is 71.1%.
